Measured values published in US9643992B2, “Two crystal forms of ginsenoside C-K and method for preparing same” (Zhejiang Hisun Pharmaceutical Co., Ltd., priority 2012, dated 2017).

Experiment: Thermostability test of crystal forms
Assay type: physicochemical
Settings: solid sample placed at 80° C. for 1 week; change of crystal form detected
Method: 3. Thermostability Test The samples of crystal form D, crystal form H and crystal form G were each placed for 1 week at 80° C., and subsequently the changes of the crystal form were detected.

Structure (SMILES) | The crystal form after test
CC(C)=CCC[C@](C)(O[C@@H]1O[C@H](CO)[C@@H](O)[C@H](O)[C@H]1O)[C@H]1CC[C@]2(C)[C@@H]1[C@H](O)C[C@@H]1[C@@]3(C)CC[C@H](O)C(C)(C)[C@@H]3CC[C@]12C [crystal form G, ginsenoside C-K] | changed to crystal form D
CC(C)=CCC[C@](C)(O[C@@H]1O[C@H](CO)[C@@H](O)[C@H](O)[C@H]1O)[C@H]1CC[C@]2(C)[C@@H]1[C@H](O)C[C@@H]1[C@@]3(C)CC[C@H](O)C(C)(C)[C@@H]3CC[C@]12C [crystal form D, ginsenoside C-K] | no change was observed
CC(C)=CCC[C@](C)(O[C@@H]1O[C@H](CO)[C@@H](O)[C@H](O)[C@H]1O)[C@H]1CC[C@]2(C)[C@@H]1[C@H](O)C[C@@H]1[C@@]3(C)CC[C@H](O)C(C)(C)[C@@H]3CC[C@]12C [crystal form H, ginsenoside C-K] | no change was observed
